Laboratory results: ChEMBL document CHEMBL1909046, “DrugMatrix in vitro pharmacology data”

Legend:
[1] = target: T1, 5-hydroxytryptamine receptor 2C (Homo sapiens, UniProt P28335); assay: DRUGMATRIX: Serotonin (5-Hydroxytryptamine) 5-HT2C radioligand binding (ligand: [3H] Mesulergine); assay type: cell membranes, CHO-K1, Membrane; settings: Not Active = under 50% inhibition at 10 µM
T1 sequence (P28335 whole entry): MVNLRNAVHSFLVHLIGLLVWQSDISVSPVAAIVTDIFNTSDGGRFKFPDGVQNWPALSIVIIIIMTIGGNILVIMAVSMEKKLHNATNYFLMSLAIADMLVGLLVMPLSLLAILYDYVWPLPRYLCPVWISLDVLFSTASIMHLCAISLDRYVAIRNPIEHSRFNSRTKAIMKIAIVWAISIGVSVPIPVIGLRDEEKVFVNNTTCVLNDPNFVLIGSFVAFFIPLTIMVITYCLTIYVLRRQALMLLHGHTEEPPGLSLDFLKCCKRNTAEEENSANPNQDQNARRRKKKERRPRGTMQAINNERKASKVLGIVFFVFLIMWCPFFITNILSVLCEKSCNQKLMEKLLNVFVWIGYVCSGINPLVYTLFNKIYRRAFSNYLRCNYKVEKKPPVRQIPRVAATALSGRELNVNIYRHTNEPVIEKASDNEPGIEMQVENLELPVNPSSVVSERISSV

[2] = DRUGMATRIX: Calcium Channel Type L, Phenylalkylamine radioligand binding (ligand: [3H] (-)-Desmethoxyverapamil (D-888)); assay type: cell membranes, Rattus norvegicus, Wistar, Brain, Membrane; settings: Not Active = under 50% inhibition at 10 µM
[3] = target: C-C chemokine receptor type 5 (Homo sapiens, UniProt P51681); assay type: cell membranes, Membrane; settings: hek293; note: in other assays of this panel Not Active means under 50% inhibition at 10 µM
Sequence of C-C chemokine receptor type 5 (P51681 whole entry): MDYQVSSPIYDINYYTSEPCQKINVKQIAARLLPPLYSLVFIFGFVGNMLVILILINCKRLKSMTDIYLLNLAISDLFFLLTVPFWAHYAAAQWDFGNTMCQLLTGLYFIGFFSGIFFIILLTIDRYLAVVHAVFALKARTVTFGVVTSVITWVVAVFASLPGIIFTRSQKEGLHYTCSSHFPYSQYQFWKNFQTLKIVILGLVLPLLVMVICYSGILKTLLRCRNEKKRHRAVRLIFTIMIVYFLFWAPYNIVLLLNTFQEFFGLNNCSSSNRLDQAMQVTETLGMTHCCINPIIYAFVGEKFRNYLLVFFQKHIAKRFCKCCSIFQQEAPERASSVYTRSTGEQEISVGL

[4] = DRUGMATRIX: GABAA, Chloride Channel, TBOB radioligand binding (ligand: [3H] TBOB); assay type: cell membranes, Rattus norvegicus, Wistar, Cerebral cortex, Membrane; settings: Not Active = under 50% inhibition at 10 µM
[5] = target: T2, Leukotriene C4 synthase (Cavia porcellus, UniProt A6XA80); assay type: tissue-based, Lung;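 note: enzyme inhibition assay of leukotriene C4 synthase, using LTA4 as the substrate; in other assays of this panel Not Active means under 50% inhibition at 10 µM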
T2 sequence (A6XA80 whole entry): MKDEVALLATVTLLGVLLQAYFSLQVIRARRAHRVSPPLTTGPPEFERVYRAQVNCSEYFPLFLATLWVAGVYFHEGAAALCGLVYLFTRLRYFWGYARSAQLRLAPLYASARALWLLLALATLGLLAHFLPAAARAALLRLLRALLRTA

[6] = target: T3, Adenosine receptor A3 (Homo sapiens, UniProt P0DMS8); assay type: cell membranes, CHO-K1, Membrane;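 note: radioligand binding assay with AB-MECA serving as the labeled ligand; in other assays of this panel Not Active means under 50% inhibition at 10 µM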
T3 sequence (P0DMS8 whole entry): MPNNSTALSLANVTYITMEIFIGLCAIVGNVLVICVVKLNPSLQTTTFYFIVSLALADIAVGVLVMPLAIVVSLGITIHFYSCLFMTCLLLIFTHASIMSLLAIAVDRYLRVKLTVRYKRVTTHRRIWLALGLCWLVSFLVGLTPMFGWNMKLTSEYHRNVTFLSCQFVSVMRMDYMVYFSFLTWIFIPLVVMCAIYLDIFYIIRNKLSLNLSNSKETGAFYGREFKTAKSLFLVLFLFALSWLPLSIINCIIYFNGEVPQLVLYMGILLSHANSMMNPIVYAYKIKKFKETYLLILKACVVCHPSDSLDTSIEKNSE

[7] = target: T4, Glucocorticoid receptor (Homo sapiens, UniProt P04150); settings: hela s3; note: in other assays of this panel Not Active means under 50% inhibition at 10 µM
T4 sequence (P04150 whole entry): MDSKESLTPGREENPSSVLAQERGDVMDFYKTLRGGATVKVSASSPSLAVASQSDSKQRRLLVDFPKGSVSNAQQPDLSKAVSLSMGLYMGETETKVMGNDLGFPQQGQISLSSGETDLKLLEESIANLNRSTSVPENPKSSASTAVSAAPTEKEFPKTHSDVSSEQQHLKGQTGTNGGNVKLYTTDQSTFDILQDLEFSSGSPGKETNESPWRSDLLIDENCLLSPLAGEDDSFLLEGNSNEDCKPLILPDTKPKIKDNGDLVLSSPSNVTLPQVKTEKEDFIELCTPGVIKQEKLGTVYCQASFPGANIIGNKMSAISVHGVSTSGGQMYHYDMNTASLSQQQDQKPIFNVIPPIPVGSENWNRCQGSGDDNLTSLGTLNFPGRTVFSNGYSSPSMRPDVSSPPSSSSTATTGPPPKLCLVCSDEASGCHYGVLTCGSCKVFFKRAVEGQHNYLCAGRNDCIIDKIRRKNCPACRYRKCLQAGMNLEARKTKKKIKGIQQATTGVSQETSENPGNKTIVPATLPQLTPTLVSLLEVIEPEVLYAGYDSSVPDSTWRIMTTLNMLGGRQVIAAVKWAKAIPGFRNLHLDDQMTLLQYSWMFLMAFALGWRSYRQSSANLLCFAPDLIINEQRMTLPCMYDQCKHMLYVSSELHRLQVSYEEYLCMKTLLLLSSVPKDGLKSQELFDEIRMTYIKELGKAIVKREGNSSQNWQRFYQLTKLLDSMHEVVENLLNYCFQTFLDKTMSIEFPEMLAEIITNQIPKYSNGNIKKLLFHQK

Row | Molecule | IC50 ([1]; cho-k1) | IC50 [2] | Ki [2] | IC50 [3] | IC50 [4] | Ki [4] | IC50 [5] | IC50 ([6]; cho-k1) | IC50 [7] | Ki [7] | IC50 ([6]; read-out: IC50) | Ki ([6]; read-out: Ki) | IC50 ([2]; read-out: IC50) | Ki ([2]; read-out: Ki) | Ki ([1]; cho-k1) | Ki [3] | Ki [5] | Ki ([6]; cho-k1) | IC50 ([1]; read-out: IC50) | Ki ([1]; read-out: Ki)
1 | CCOC(=O)N1CCC(=C2c3ccc(Cl)cc3CCc3cccnc32)CC1 [LORATADINE] | Not Active | Not Active | Not Active | Not Active | Not Active | Not Active | Not Active | Not Active | Not Active | – | – | – | – | – | – | – | – | – | – | –
2 | N[C@@H](Cc1ccc(N(CCCl)CCCl)cc1)C(=O)O | Not Active | Not Active | Not Active | Not Active | Not Active | Not Active | Not Active | Not Active | Not Active | – | – | – | – | – | – | – | – | – | – | –
3 | c1ccc([C@H]2CN3CCSC3=N2)cc1 [LEVAMISOLE] | Not Active | Not Active | Not Active | Not Active | Not Active | Not Active | Not Active | Not Active | – | Not Active | – | – | – | – | – | – | – | – | – | –
4 | Nc1nc2nc[nH]c2c(=S)[nH]1 [THIOGUANINE] | Not Active | Not Active | Not Active | Not Active | Not Active | Not Active | Not Active | – | Not Active | – | 21.7 µM | 12.3 µM | – | – | – | – | – | – | – | –
5 | CC(C)(C)NC(=O)[C@@H]1C[C@@H]2CCCC[C@@H]2CN1C[C@@H](O)[C@H](Cc1ccccc1)NC(=O)[C@H](CC(N)=O)NC(=O)c1ccc2ccccc2n1 | Not Active | – | – | Not Active | Not Active | Not Active | Not Active | Not Active | Not Active | – | – | – | 6.83 µM | 6.65 µM | – | – | – | – | – | –
6 | SODIUM NITROPRUSSIDE | Not Active | Not Active | Not Active | Not Active | Not Active | Not Active | Not Active | Not Active | Not Active | Not Active | – | – | – | – | Not Active | Not Active | Not Active | Not Active | – | –
7 | N[C@@H]1[C@H]2CN(c3nc4c(cc3F)c(=O)c(C(=O)O)cn4-c3ccc(F)cc3F)C[C@@H]12 [TROVAFLOXACIN] | Not Active | Not Active | Not Active | Not Active | Not Active | Not Active | Not Active | Not Active | Not Active | – | – | – | – | – | – | – | – | – | – | –
8 | CC[C@@H](CO)NC(=O)[C@@H]1C=C2c3cccc4[nH]cc(c34)C[C@H]2N(C)C1 [METHYLERGONOVINE] | – | Not Active | Not Active | Not Active | Not Active | Not Active | Not Active | Not Active | Not Active | – | – | – | – | – | – | – | – | – | 0.013 µM | 0.00656 µM
9 | Cc1cccc(N(C)C(=S)Oc2ccc3ccccc3c2)c1 [TOLNAFTATE] | Not Active | Not Active | Not Active | Not Active | Not Active | Not Active | Not Active | Not Active | Not Active | – | – | – | – | – | – | – | – | – | – | –
10 | Cc1oncc1C(=O)Nc1ccc(C(F)(F)F)cc1 [LEFLUNOMIDE] | Not Active | Not Active | Not Active | Not Active | Not Active | Not Active | Not Active | Not Active | Not Active | – | – | – | – | – | – | – | – | – | – | –
11 | Nc1nc2ccc(OC(F)(F)F)cc2s1 [RILUZOLE] | Not Active | Not Active | Not Active | Not Active | Not Active | Not Active | Not Active | Not Active | Not Active | – | – | – | – | – | – | – | – | – | – | –
12 | CCCOc1ccccc1-c1nc2nn[nH]c2c(=O)[nH]1 [ZAPRINAST] | Not Active | Not Active | Not Active | Not Active | Not Active | Not Active | Not Active | Not Active | Not Active | – | – | – | – | – | – | – | – | – | – | –
13 | CC[C@]1(O)C[C@H]2CN(CCc3c([nH]c4ccccc34)[C@@](C(=O)OC)(c3cc4c(cc3OC)N(C=O)[C@H]3[C@@](O)(C(=O)OC)[C@H](OC(C)=O)[C@]5(CC)C=CCN6CC[C@]43[C@@H]65)C2)C1 [VINCRISTINE] | Not Active | Not Active | Not Active | Not Active | Not Active | Not Active | Not Active | Not Active | Not Active | – | – | – | – | – | – | – | – | – | – | –
